Assay results published in publication PMC8387413 (Bioorganic chemistry, 2021).
Read-outs that look alike come from different tables or passages of the source.

Key:
γδ T cells [1] = conditions: read-out: EC50 (γδ T cell stimulation), cited from earlier work
γδ T cells [2] = type: cell-based; conditions: Homo sapiens, K562, read-out: ELISA EC50 μM (95% CI)
γδ T cells [3] = assay: T cell proliferation: expansion of γδ T cells from human PBMCs, flow cytometry; type: cell-based; conditions: for EC50: Homo sapiens, T-cell
K562 cells = assay: K562 viability; type: cell-based; conditions: for IC50: read-out: Toxicity IC50 μM (95% CI); for direct toxicity (in words): K562 cells, 72 hours of exposure, doses of 100 μM or lower
[4] = read-out: Proliferation EC50 μM (95% CI)
[5] = K562 leukemia cells, 72 hours exposure, n=3

Question: With C/C(=C\CCP(=O)(O)O)CO [C-HMBP] as the molecule, how does the EC50 (γδ T cells [1]) read?
Answer: ~4 µM

Question: Which EC50 (γδ T cells [2]) does the source give for COP(=O)(CC/C=C(\C)CO)OCOC(=O)c1ccc(/N=N/c2ccc(N(C)C)cc2)cc1 (stereo not drawn) [Compound 14, ((((E)-5-Hydroxy-4-methylpent-3-en-1-yl)(methoxy)phosphoryl)oxy)methyl 4-((E)-(4-(dimethylamino)phenyl)diazenyl)benzoate] here?
Answer: 0.11 µM

Question: And the EC50 (γδ T cells [3]; read-out: EC50 for stimulation of γδ T cells)?
Answer: 0.11 µM

Question: What about the EC50 (γδ T cells [3]; [4]) of the same molecule?
Answer: 0.099 µM

Question: What about the IC50 (K562 cells; Homo sapiens, K562, 72 h) of the same molecule?
Answer: 36 µM

Question: What about the “direct toxicity (in words)” value (K562 cells) of the same molecule?
Answer: toxic at 100 μM

Question: With COP(=O)(CC/C=C(\C)CO)Oc1ccc2ccc(=O)oc2c1 (stereo not drawn) [Compound 16, (E)-Methyl (2-oxo-2H-chromen-7-yl)(5-hydroxy-4-methylpent-3-en-1-yl)phosphonate] as the molecule, how does the IC50 (K562 cells; [5]) read?
Answer: > 100 µM

Question: For C/C(=C\CCP(=O)(O)Oc1ccc2ccc(=O)oc2c1)CO [Compound 17], which IC50 (K562 cells; [5]) is on record?
Answer: > 100 µM

Question: Which results are given for C/C(=C\CCP(=O)(OCOC(=O)c1ccc(/N=N/c2ccc(N(C)C)cc2)cc1)Oc1ccc2ccc(=O)oc2c1)CO (stereo not drawn) [Compound 18, ((((E)-5-Hydroxy-4-methylpent-3-en-1-yl) ((2-oxo-2H-chromen-7-yl)oxy)phosphoryl)oxy)methyl 4-((E)-(4-(dimethylamino)phenyl)diazenyl)benzoate]?
Answer: EC50 (γδ T cells [2]): 0.0075 µM; EC50 (γδ T cells [3]; [4]): 0.0005 µM; IC50 (K562 cells; Homo sapiens, K562, 72 h): 27 µM; direct toxicity (in words) (K562 cells): toxic at 100 μM

Question: What does the source list for COc1ccc2cc(C(=O)NCCc3ccc(OP(=O)(CC/C=C(\C)COC(C)=O)OC)cc3)c(=O)oc2c1 (stereo not drawn) [Compound 22, (E)-5-(Methoxy(4-(2-(7-methoxy-2-oxo-2H-chromene-3-carboxamido)ethyl)phenoxy)phosphoryl) -2-methylpent-2-en-1-yl acetate]?
Answer: EC50 (γδ T cells [2]): > 10 µM; EC50 (γδ T cells [3]; [4]): 5.8 µM; stimulation of proliferation (in words) (γδ T cells [3]; γδ T cells from human PBMCs): did not indicate substantial stimulation of proliferation; IC50 (K562 cells; Homo sapiens, K562, 72 h): > 100 µM

Question: For COc1ccc2cc(C(=O)NCCc3ccc(OP(=O)(CC/C=C(\C)COC(C)=O)OCOC(=O)c4ccc(/N=N/c5ccc(N(C)C)cc5)cc4)cc3)c(=O)oc2c1 (stereo not drawn) [Compound 23], which IC50 (K562 cells; [5]) is on record?
Answer: > 100 µM

Question: For C/C(=C\COP(=O)(O)OP(=O)(O)O)CO [HMBPP, (E)-4-hydroxy-3-methyl-but-2-enyl diphosphate], which EC50 (γδ T cells [1]; in our assays) is on record?
Answer: ~0.0005 µM
